Where two headings read alike, the source gives them in different places.
Assays:
[1] = system: activated partial thromboplastin time (aPTT); assay: Ex vivo clotting assay (aPTT); type: in vivo, New Zealand White (NZW) rabbits; conditions: for ex vivo aPTT Onset of Clotting Time, mean: n 4, in s (unit assumed)
Description: The following coagulation reagents were purchased from Diagnostica Stago (Parsippany, NJ): Thrombin 10 (Catalog No: 00611, lot No: 251851) for thrombin time (TT), Neoplastine® Cl 5 (Catalog No: 00666, lot No: 01504) for prothrombin time (PT), C.K. Prest® 5 (Catalog No: 00597, lot No: 112768) and CaCl2 (0.025 M, Catalog No: 00367, Lot No: 254158) for activated partial thromboplastin time (aPTT). Coagulometer STA rt4 (Diagnotica Stago) was used for ex vivo clotting time analysis.
Blood samples (1 mL each) were collected in 3.2% sodium citrate (BD Biosciences, Franklin Lakes, NJ) before and after shunt set up from the femoral artery cannula and centrifuged at 2500 g for 15 minutes at 20° C. The resulting platelet poor plasma (PPP) was transferred into clean tubes and stored at −80° C. until use.
Coagulation assays were performed with PPP in a 4 channel coagulometer STA rt4 (Diagnotica Stago). For the aPTT assay, 50 μl C.K. Preset reagent was incubated with 50 μl PPP for 3 min at 37° C. in a cuvette, and coagulation was initiated by adding 50 μl 25 mM CaCl2). The onset of clotting was recorded as the coagulation time.
Statistical analysis: All the data are expressed as mean±SEM. Statistical analyses were performed using GraphPad Prism software (v8.0). Significance was defined at p<0.05 as determined by one-way ANOVA. Tukey's test was used for multiple comparisons.

[2] = target: T1, CYP3A4 (Homo sapiens, UniProt P08684); assay: Assessment of TDI potential using the IC50 shift method; type: in vitro ADME; conditions: CYP3A4 (testosterone)
T1 construct: Frozen human liver microsomes (HLM) were thawed at 37° C; from tissue; host or cells: human liver microsomes
Protocol: Assessment of TDI Potential Using the IC50 Shift Method
To establish the potential for TDI of a particular P450 isozyme, the test compound is preincubated over a concentration range (typically 0.04 to 10 μM) with HLMs in the presence of cofactor NADPH for 30 minutes. After pre-incubation, a probe substrate known to be specifically metabolized to a defined metabolite by the isoform under investigation is then added at fixed concentration. Following a pre-defined incubation period (e.g. 10 minutes for the CYP3A4 testosterone assay), the reaction is terminated by addition of a suitable organic solvent (typically, acetonitrile) containing an internal standard. The samples are centrifuged prior to analysis by LC-MS/MS analysis and IC50 TDI value is calculated using curve fitting. This is compared to the IC50 for reversible inhibition, obtained when the pre-incubation step is performed in the absence of […] (IC50 Rev). A leftwards shift in the IC50 (i.e. increased inhibition) upon pre-incubation indicates the potential for TDI of that isozyme. The IC50 shift value is calculated as the ratio of IC50 Rev/IC50 TDI.
The assay was performed on a fully automated Tecan robotic system. Sample analysis was performed via LC-MS/MSMS using stable-labelled internal standard of the probe substrate metabolite.

[3] = 0.15 + 0.13 mg/kg initial + maintenance, 20 min post initial dose
[4] = 0.15 + 0.13 mg/kg initial + maintenance, 60 min post initial dose
[5] = 0.5 + 0.43 mg/kg initial + maintenance, 20 min post initial dose
[6] = 0.5 + 0.43 mg/kg initial + maintenance, 60 min post initial dose
[7] = 1.5 + 1.3 mg/kg initial + maintenance, 20 min post initial dose
[8] = 1.5 + 1.3 mg/kg initial + maintenance, 60 min post initial dose
[9] = 5.0 + 4.3 mg/kg initial + maintenance, 20 min post initial dose
[10] = 5.0 + 4.3 mg/kg initial + maintenance, 60 min post initial dose
[11] = 15.0 + 13.0 mg/kg initial + maintenance, 20 min post initial dose
[12] = 15.0 + 13.0 mg/kg initial + maintenance, 60 min post initial dose

T1 sequence (P08684 whole entry): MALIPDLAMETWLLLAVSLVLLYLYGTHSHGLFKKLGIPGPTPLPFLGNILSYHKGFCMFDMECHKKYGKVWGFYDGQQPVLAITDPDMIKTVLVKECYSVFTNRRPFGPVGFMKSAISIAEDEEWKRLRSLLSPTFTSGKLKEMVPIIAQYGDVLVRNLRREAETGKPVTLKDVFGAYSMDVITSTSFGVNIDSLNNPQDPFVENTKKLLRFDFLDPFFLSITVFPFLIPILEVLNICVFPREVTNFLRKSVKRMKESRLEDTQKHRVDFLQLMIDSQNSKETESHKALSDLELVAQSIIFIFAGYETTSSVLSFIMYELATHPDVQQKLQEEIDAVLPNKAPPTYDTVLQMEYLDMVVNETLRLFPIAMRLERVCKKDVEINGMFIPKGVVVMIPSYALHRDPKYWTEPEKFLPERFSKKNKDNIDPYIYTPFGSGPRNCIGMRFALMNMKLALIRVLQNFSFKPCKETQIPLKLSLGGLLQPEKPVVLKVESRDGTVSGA

SMILES: O=C1C=C(c2c(-n3cnnn3)ccc(Cl)c2F)C[C@H]2CC[C@@H](c3ncc(-c4ccnc(CO)c4F)[nH]3)N12 [Compound of formula (I-A), (3S,8aR)-7-(3-Chloro-2-fluoro-6-(1H-tetrazol-1-yl)phenyl)-3-(5-(3-fluoro-2-(hydroxymethyl)pyridin-4-yl)-1H-imidazol-2-yl)-2,3,8,8a-tetrahydroindolizin-5(1H)-one]
- ex vivo aPTT, Fold vs baseline [1, 3]: 1.37
- ex vivo aPTT Onset of Clotting Time, mean [1, 3]: 28.00
- ex vivo aPTT, Fold vs baseline [1, 4]: 1.17
- ex vivo aPTT Onset of Clotting Time, mean [1, 4]: 23.88
- ex vivo aPTT, Fold vs baseline [1, 5]: 1.24
- ex vivo aPTT Onset of Clotting Time, mean [1, 5]: 25.40
- ex vivo aPTT, Fold vs baseline [1, 6]: 1.02
- ex vivo aPTT Onset of Clotting Time, mean [1, 6]: 20.95
- ex vivo aPTT, Fold vs baseline [1, 7]: 1.59
- ex vivo aPTT Onset of Clotting Time, mean [1, 7]: 32.50
- ex vivo aPTT, Fold vs baseline [1, 8]: 1.37
- ex vivo aPTT Onset of Clotting Time, mean [1, 8]: 28.05
- ex vivo aPTT, Fold vs baseline [1, 9]: 2.32
- ex vivo aPTT Onset of Clotting Time, mean [1, 9]: 47.40
- ex vivo aPTT, Fold vs baseline [1, 10]: 2.14
- ex vivo aPTT Onset of Clotting Time, mean [1, 10]: 43.75
- ex vivo aPTT, Fold vs baseline [1, 11]: 3.40
- ex vivo aPTT Onset of Clotting Time, mean [1, 11]: 69.6
- ex vivo aPTT, Fold vs baseline [1, 12]: 3.27
- ex vivo aPTT Onset of Clotting Time, mean [1, 12]: 67.00
- % maximum concentration, without pre-incubation ([2]; HLM): 68.2%
- % maximum concentration, with pre-incubation ([2]; HLM, 30 minutes pre-incubation): 62.8%
- IC50 ([2]; HLM, 30 minutes pre-incubation with NADPH, read-out: IC50 with pre-incubation): 17.5 ± 2.5 µM
- IC50 ([2]; HLM, standard solvent conditions, read-out: IC50 without pre-incubation): 12.2 ± 1.4 µM
- IC50 shift ([2]; ratio of IC50 Rev/IC50 TDI): 0.70
